Experiments:
[1] = tested on: Myzus persicae; test: Aphid settling (choice test) on treated vs control leaves of Brassica rapa subsp. pekinensis; assay type: in vivo; conditions: for Mean number of aphids settled on treated (test) leaf: 0.1% solution in 70% ethanol, mean (± SD), n = 8, 20 aphids/replicate; for Effect on aphid settling behavior (deterrent / attractant): choice test, 0.1% solution, significance p < 0.05 Student t-test
Protocol: The peach potato aphids Myzus persicae (Sulzer) and the Chinese cabbage Brassica rapa subsp. pekinensis (Lour.) Hanelt were reared in laboratory at 20 °C, 65% r.h., and L16:8D photoperiod. One to seven days old apterous females of M. persicae and 3-week old plants with 4–5 fully developed leaves were used for experiments. M. persicae were obtained from the laboratory culture maintained at the Department of Botany and Ecology for many generations since 2000. All experiments were carried out under the same conditions of temperature, relative humidity, and photoperiod. The bioassays were started at 10–11.a.m. Each compound was dissolved in 70% ethanol to obtain the recommended 0.1% solution[40]. All compounds were applied on the adaxial and abaxial leaf surfaces by immersing a leaf in the ethanolic solution of a given compound for 30 s.[20]. Control leaves of similar size were immersed in 70% ethanol that was used as a solvent for the studied compounds. Experiments were performed 1 h after the compounds application to allow the evaporation of the solvent. Every plant and aphid were used only once.
This bioassay allows the study of aphid host preferences under semi-natural conditions. In the present study, aphids were given free choice between control and treated excised leaves that were placed in a Petri dish. Aphids were placed in the dish equidistance from treated and untreated leaves, so that aphids could choose between treated (on one half of a Petri dish) and control leaves (on the other half of the dish). […] Each experiment was replicated 8 times (n = 8 replicates, 20 viviparous apterous females/replicate). Aphids that were moving or not on any of the leaves were not counted.
The data of the choice-test were analyzed using Student’s t-test (STATISTICA 13.1. package). […] If aphids settled mainly on the control leaf (p < 0.05), the compound tested in the respective choice-test was stated a deterrent. From the data thus obtained the relative index of deterrence (DI) was calculated: DI = (C − T/C + T) where C was the number of aphids settled on control leaf, T was the number of aphids settled on the leaf treated with the tested compound. The value of DI ranged between 1 (ideal deterrent) and − 1 (ideal attractant)[41].

[2] = tested on: MV4-11 cells; test: Antiproliferative activity, MTT assay; assay type: cell-based, human; conditions: for Selectivity index SI, MV4-11: SI = IC50 BALB/3T3 / IC50 MV4-11; for IC50: 72 h exposure, MTT, mean ± SD, n.a = no activity in concentration of 5, 25, 125, 625 μM
Protocol: Human biphenotypic B myelomonocytic leukemia MV4-11, human colon cancer LoVo cell line and normal mouse fibroblast BALB/3T3 cells were obtained from American Type Culture Collection (Rockville, Maryland, USA), human lung carcinoma A549 cells were obtained from European Collection of Authenticated Cell Cultures (UK). All the cell lines are being maintained at the Hirszfeld Institute of Immunology and Experimental Therapy, PAS, Wroclaw, Poland and were cultured according the procedure described before.
Cell lines were cultured according to the protocol described before. MV4-11 cells were cultured in RPMI 1640 medium (Gibco, UK) with 1.0 mM sodium pyruvate, and 10% fetal bovine serum (FBS) (all from Sigma-Aldrich, Germany). A549, LoVo and LoVo/DX cells were cultured in RPMI 1640 + Opti-MEM (1:1) (both from Gibco, UK) supplemented with 5% fetal bovine serum, 1.0 mM sodium pyruvate (LoVo and LoVo/DX cells) (all from Sigma Aldrich Germany) and 0.1 μg/mL doxorubicin chloride (Accord) (only LoVo/DX cells). BALB/3T3 cells in Dulbecco medium (IIET, Poland) supplemented with 10% fetal bovine serum (Sigma-Aldrich, Germany). All culture media were supplemented with 2 mM L-glutamine (Sigma-Aldrich, Germany), 100 units/mL penicillin, and 100 µg/mL streptomycin (both from Polfa Tarchomin S.A., Poland). All cell lines were grown at 37 °C with 5% CO2 humidified atmosphere.
The solutions of the compounds (50 mM) were prepared by dissolving the substances in DMSO (Sigma Aldrich, Germany). Then the tested compounds were diluted in culture medium to reach the final concentrations of 625, 125, 25 and 5 μM. Before adding of the tested compounds (24 h prior), the cells were plated in 96-well plates (Sarstedt, Germany) at a density of 1 × 10^4 or 0.5 × 10^4 (A549) cells per well. The assay was performed after 72 h of exposure to 625, 125, 25 and 5 μM of the tested agents. The in vitro cytotoxic effect of all agents was examined using the MTT (MV4-11) or SRB assay, described previously. The results were calculated as an IC50 (inhibitory concentration 50%) the concentration of tested agent, which is cytotoxic for 50% of the cancer cells. Each compound in each concentration was tested in triplicate in a single experiment, which was repeated 3–5 times.

Compound	Mean number of aphids settled on treated (test) leaf ([1]; 1 h after access)	Mean number of aphids settled on treated (test) leaf ([1]; 2 h after access)	Mean number of aphids settled on treated (test) leaf ([1]; 24 h after access)	Selectivity index SI, MV4-11 [2]	IC50 ([2]; Homo sapiens, MV4-11)	Effect on aphid settling behavior (deterrent / attractant) [1]	IC50 [2]
C=CC(C)(CCCC(C)CCCC(C)CCCC(C)C)CC(=O)O (stereo not drawn) [compound 3, 3,7,11,15-tetramethyl-3-vinylhexadecanoic acid]	8.5 (± 2.1)	8.9 (± 1.0)	8.1 (± 1.3)	3.69	–	–	–
CC(C)CCCC(C)CCCC(C)CCC[C@]1(C)CC(=O)O[C@H]1CCl (stereo in doubt) [compound 7, cis-5-chloromethyl-4-methyl-4-(4′,8′,12′-trimethyltridecyl)dihydrofuran-2-one]	4.1 (± 1.0)	3.5 (± 0.7)	4.8 (± 0.9)	–	110 ± 41.6 µM	–	–
CC(C)CCCC(C)CCCC(C)CCC[C@]1(C)CC(=O)O[C@@H]1CBr (stereo in doubt) [compound 4, trans-5-Bromomethyl-4-methyl-4-(4′,8′,12′-trimethyltridecyl)dihydrofuran-2-one]	2.9 (± 0.7)	2.4 (± 0.6)	4.9 (± 1.7)	7.43	46.9 ± 11.7 µM	–	–
CC(C)CCCC(C)CCCC(C)CCC[C@]1(C)CC(=O)O[C@H]1CBr (stereo in doubt) [compound 5, cis-5-Bromomethyl-4-methyl-4-(4′,8′,12′-trimethyltridecyl)dihydrofuran-2-one]	3.4 (± 1.0)	3.0 (± 1.1)	5.6 (± 1.4)	8.15	52 ± 13.8 µM	–	–
CC(C)CCCC(C)CCCC(C)CCC[C@]1(C)CC(=O)O[C@@H]1CCl (stereo in doubt) [compound 6, trans-5-Chloromethyl-4-methyl-4-(4′,8′,12′-trimethyltridecyl)dihydrofuran-2-one]	5.8 (± 1.3)	4.5 (± 1.1)	10.0 (± 1.7)	5.65	48.3 ± 19.6 µM	attractant properties	–
3,7,11,15-tetramethylhexadec-2-en-1-ol [Phytol (1), reference compound]	10.4 (± 1.3)	7.9 (± 1.0)	6.6 (± 0.9)	1.25	–	deterrent properties	51.4 ± 3.6 µM
